Here are results for 19 compounds from patent US20110306762A1, “ACID ADDITION SALT OF UDENAFIL, PREPARATION METHOD THEREOF AND PHARMACEUTICAL COMPOSITION COMPRISING THE SAME” (priority 2009, published 2011).

A short description of data set [1]: Crystallinity test of acid addition salts of Udenafil. The data set is classed as physicochemical. Further details: key: ◯: Formation of crystal; X: No formation of crystal. The conditions noted are these: for Crystallinity test 1-2: crystallization: whether crystallization occurs after dissolving the salt in a suitable solvent; for Crystallinity test 1-1: detecting whether the crystal is formed in the reaction solution. The procedure:
The acid addition salts of Udenafil obtained in Examples 1 to 6 and Comparative Examples were tested for crystallinity and hygroscopicity as follows.
1) detecting whether the crystal is formed in the reaction solution, and
2) crystallization: detecting whether crystallization occurs after dissolving acid addition salt of Udenafil in a suitable solvent.

Data set [2] is described as follows: Solubility test in distilled water by HPLC. The class given is physicochemical. The source says:
To test the solubility of the acid addition salts of Udenafil in distilled water, the following experiments were preformed.
The analysis conditions for HPLC were as follows:
Detector: ultraviolet ray absorbance measured at wavelength 292 nm
Column: octadecyl silica gel C18 (4.6×150 mm, 5 μm)
Mobile phase: an aqueous solution of potassium dihydrogenphosphate (0.02M):acetonitrile=70:30

A further data set concerns the target PDE-5 (Homo sapiens, UniProt O76074). Particulars: compared with the conventional compounds; cited from earlier work.
For data set [3] the following is noted: in vivo; cited from earlier work.
Data set [4] in a line: Hygroscopicity test of acid addition salts of Udenafil. The data set is classed as physicochemical. The conditions noted are these: exposed for 2 hours, room temperature, relative humidity 43%.

For the compound “Adipic Acid Addition Salt of Udenafil [Example 5]”, in data set [1], the “Crystallinity test 1-2” value is listed as “◯” and the “Crystallinity test 1-1” value is “◯”.

“Oxalic Acid Addition Salt of Udenafil [Example 1]”: in data set [1], the “Crystallinity test 1-2” value was “◯” and the “Crystallinity test 1-1” value is “◯”.

As to “Cinnamic Acid Addition Salt of Udenafil [Example 4]”, in data set [1], the “Crystallinity test 1-2” value is on record as “◯” and the “Crystallinity test 1-1” value was “◯”.

With `CCCOc1ccc(S(=O)(=O)NCCC2CCCN2C)cc1-c1nc2c(CCC)nn(C)c2c(=O)[nH]1` (centres unmarked) [Udenafil, 5-[2-propyloxy-5-(1-methyl-2-pyrrolidinyleneamidosulfonyl)phenyl]-1-methyl-propyl-1,6-dihydro-7H-pyrazolo(4,3-d)pyrimidine-7-one], the “solubility in the distilled water” value in data set [2] is recorded as “hardly dissolved”. Moreover, the “detection in the distilled water” value in data set [2] (HPLC) is reported as “not detected”. For the same compound, on PDE-5, the “selectivity to PDE-5” value is “notably higher selectivity”. Further, in data set [3], the half-life is 12 h and the “time to maximum peak plasma concentration” value was 1 h.

With “Benzenesulfonic Acid Addition Salt of Udenafil [Example 2]”, in data set [1], the “Crystallinity test 1-2” value is on record as “◯” and the “Crystallinity test 1-1” value is “◯”.

In the case of `O=C(O)CCC(=O)O` [succinic acid], in data set [1], the “Crystallinity test 1-2” value is “X” and the “Crystallinity test 1-1” value is listed as “X”.

For `O=C(O)C(O)C(O)C(=O)O` (centres unmarked) [tartaric acid], in data set [1], the “Crystallinity test 1-2” value was “X” and the “Crystallinity test 1-1” value is “X”.

For `O=C(O)/C=C/C(=O)O` [fumaric acid], in data set [1], the “Crystallinity test 1-2” value is “X” and the “Crystallinity test 1-1” value is reported as “X”.

Take `O=CO` [formic acid]: in data set [1], the “Crystallinity test 1-2” value is on record as “X” and the “Crystallinity test 1-1” value was “X”.

For `O=C(O)CCCC(=O)O` [glutaric acid], in data set [1], the “Crystallinity test 1-2” value is listed as “X” and the “Crystallinity test 1-1” value is reported as “X”.

As for `O=C(O)CC(O)(CC(=O)O)C(=O)O` [citric acid], in data set [1], the “Crystallinity test 1-2” value is “X” and the “Crystallinity test 1-1” value is reported as “X”.

Take `N[C@@H](CCC(=O)O)C(=O)O` [glutamic acid]: in data set [1], the “Crystallinity test 1-2” value is “X” and the “Crystallinity test 1-1” value is on record as “X”.

Turning to `O=C(O)CC(=O)O` [malonic acid], in data set [1], the “Crystallinity test 1-2” value is “X” and the “Crystallinity test 1-1” value is “X”.

On to `O=C(O)/C=C\C(=O)O` [maleci acid], for which, in data set [1], the “Crystallinity test 1-2” value is given as “X” and the “Crystallinity test 1-1” value is “X”.

On to `CC(O)C(=O)O` (centres unmarked) [lactic acid], for which, in data set [1], the “Crystallinity test 1-2” value is “X” and the “Crystallinity test 1-1” value is “X”.

Turning to `O=C(O)CNC(=O)c1ccccc1` [hippuric acid], in data set [1], the “Crystallinity test 1-2” value is recorded as “X” and the “Crystallinity test 1-1” value is “X”.

For `CC1(C)C2CCC1(CS(=O)(=O)O)C(=O)C2.CCCOc1ccc(S(=O)(=O)NCCC2CCCN2C)cc1-c1nc2c(CCC)nn(C)c2c(=O)[nH]1` (centres unmarked) [Example 3, Camphorsulfonic Acid Addition Salt of Udenafil], in data set [1], the “Crystallinity test 1-2” value was “◯” and the “Crystallinity test 1-1” value is recorded as “◯”. For the same compound, in data set [2], the “solubility in the distilled water” value is on record as “remarkably excellent solubility”. Further, in data set [2] (HPLC, UV 292 nm), the “Average of measured peak area” value was 7,142,473, the “First measured peak area” value was 7,141,140, the “second measured peak area” value is 7,127,027 and the “third measured peak area” value is on record as 7,158,961. Besides, the “Hygroscopicity (weight change ratio, %)” value in data set [4] worked out at 0.7%.

With `O=C(O)/C=C\C(=O)O` [maleic acid], in data set [1], the “Crystallinity test 1-2” value is reported as “X” and the “Crystallinity test 1-1” value is given as “X”.

Take `N[C@@H](CC(=O)O)C(=O)O` [aspartic acid]: in data set [1], the “Crystallinity test 1-2” value is “X” and the “Crystallinity test 1-1” value is “X”.
